Source: patent US20260356803A1, “Nicotinamide derivatives” (Board of Regents, The University of Texas System, priority 2024, published 2026)
Entries after “also recorded” stand apart in the source; their conditions may differ.

Tests used:
Schwann cells = conditions: cited from earlier work
[1] = tested on: mouse embryonic fibroblasts; conditions: cited from earlier work
[2] = tested on: human MPNST cells subcutaneously xenografted into mice; conditions: cited from earlier work
primary mouse GBM cells = conditions: screen of 200,000 synthetic compounds; cited from earlier work
[3] = tested on: NAMPT activity in S462 cells; test: NMN levels in S462 cells (NAMPT activity in cells); assay type: cell-based, human; conditions: regular DMEM, increasing concentrations of 9, compared with FK866
[4] = Co-treatment of 9 with sublethal FK866; assay type: cell-based
Protocol: These observations, taken together, support the hypothesis that the activity of compound 9 depends on NAMPT and NMNAT1.
In 96-well assay plates (Corning #2903), 2,000 cells were plated per well in 100 μL of medium and allowed to adhere overnight. The next day, compounds or Nam suspended in DMSO were dispensed to the assayed wells using a D300e Digital Dispenser (Tecan). All wells were normalized to 0.5% DMSO. 72 hours after incubation at 37 °C in 5% CO2, cell viability was assayed using an ATP-based luminescent viability assay, CellTiter-Glo (Promega #G8462). CellTiter-Glo substrate was mixed 1:1 with phosphate-buffered saline (PBS) supplemented with 1% Triton X-100, and 40 μL of this mixture was added to the assay wells. After the plates were shaken on a microplate shaker for 10 minutes at room temperature, luminescence was recorded using a Synergy 2 Microplate Reader or Cytation 5 plate reader (BioTek). In Prism 9 software (GraphPad), ten-point dose response curves were plotted with baseline-correction to the vehicle control well, and IC50 values were calculated by curve fitting using asymmetric (five parameter), least squares fit.

iHCT116 cells = test: Forward genetics resistance selection (IAA-inducible mutagenesis); assay type: cell-based
Excerpt: Second, we screened for resistance to 9 in iHCT116 cells, a system that uses inducible mutagenesis and forward genetics to find compound-resistant mutations and thus can reveal both loss of function and gain of function alleles that suppress activity. The iHCT116 system is a barcoded cell line in which we temporally control mutagenesis by the addition of indole acetic acid (IAA) mediated degradation of the mismatch repair protein MLH1.^12 MLN4924 is a small molecule toxin that we use as a positive control to verify that IAA treatment leads to increased mutations. By degrading MLH1 and increasing the overall mutation rate, IAA treatment increases the frequency of UBA3 mutations, leading to a higher rate of MLN4924 resistance. […] Having previously established a relationship between either NMNAT1 levels or NAMPT activity and compound resistance, we analyzed the levels of both enzymes in multiple resistant clones that harbored unique barcode sequences. […] To test whether reduced NMNAT1 levels in these clones contributed to resistance, we ectopically expressed NMNAT1 in either the parental cells or a representative resistant clone with low NMNAT1 expression.

[5] = Levels of 9 in media and cells over time; assay type: cell-based
Excerpt: Given that compound 21 (1) and 9 both resemble and are rescued by Nam, and the fact that the NAD salvage pathway is essential for toxicity, we considered that these two compounds may themselves be substrates in the NAD salvage pathway. In this model, we would predict that the compounds would be metabolized in cells, and that excess Nam acting as a competitive substrate would block that metabolism. To test this hypothesis, we measured the total amount of 9 in media and cells over time with or without Nam supplementation.
Prior to the experiment, cells were cultured in low-Nam DMEM for at least 1 passage (3 days) to deplete intracellular Nam. 15,000 cells were plated in a 96-well plate with 100 μL low-Nam media. At appropriate time points, 500 nM 1 or 9, or equal volume of vehicle (DMSO) were added using TECAN. 200 μL of acetonitrile with 0.1% formic acid were added to the assayed wells. […] The supernatants were filtered through 0.2 μm PVDF filters and analyzed by LC-MS/TOF.
Initial evaluation of the stability of 9 in the presence and absence of exogenous Nam was performed using LC-MS/MS analysis with a Sciex TripleQuad™ 4500 (AB SCIEX, Framingham, MA, USA) coupled to a Shimadzu (Columbia, MD) Prominence LC. The compound was detected in positive MRM mode following the transition 204.9 to 79.0. […]

resistant iHCT116 clones = test: Metabolism of 9 in resistant iHCT116 clones; assay type: cell-based; conditions: parental and resistant clones
Excerpt: The experiments described above are consistent with the model that both 1 and 9 are converted by NAMPT and NMNAT1 into their respective MN and AD metabolites. It remains unclear, however, which of these two metabolites is contributing to toxicity. To address this question, we measured 9 metabolism, 9-MN and 9-AD levels upon treatment of the resistant clones identified through forward genetics. […] Clones 5 and 7 were resistant to 9 but had normal NAMPT and NMINAT levels.
Prior to the experiment, cells were cultured in low-Nam DMEM for at least 1 passage (3 days) to deplete intracellular Nam. 15,000 cells were plated in a 96-well plate with 100 μL low-Nam media. At appropriate time points, 500 nM 1 or 9, or equal volume of vehicle (DMSO) were added using TECAN. 200 μL of acetonitrile with 0.1% formic acid were added to the assayed wells. For the 0-hour time point, compound or vehicle was added after the addition of acetonitrile and formic acid. Following incubation for 10 minutes at room temperature, samples were transferred to Eppendorf tubes and centrifuged at 20,000×g for 5 minutes. The supernatants were filtered through 0.2 μm PVDF filters and analyzed by LC-MS/TOF.

[6] = resistant clones with unique barcodes

Row | Structure (SMILES) | toxicity to Schwann cells (Schwann cells) | toxicity to mouse embryonic fibroblasts [1] | toxic effects in mice ([2]; mice bearing MPNST xenografts) | growth of xenograft tumors ([2]; mice, listed as compound 21) | anti-proliferative activity (primary mouse GBM cells) | NMN levels in S462 cells [3] | increase in IC50 of 9 with FK866 ([4]; addition of 278 pM FK866) | increase in IC50 of 9 with FK866 ([4]; addition of 833 pM FK866) | NAMPT levels in 9-resistant clones (iHCT116 cells; [6]) | NMNAT1 protein levels downregulated in 9-resistant clones (iHCT116 cells; [6]) | difference in number of surviving clones Mut-off vs Mut-on (iHCT116 cells; three lethal selection concentrations of 9) | decrease in levels of 9 with Nam ([5]; 100 μM Nam, 24 hours) | half-life at 0.5 µM ([5]; cells in nam-free dmem, 10% FBS Nam-free DMEM) | metabolism of 9 over time (resistant iHCT116 clones)
1 | O=C(Nc1cccnc1)c1cccs1 [Compound 1, N-(pyridin-3-yl)thiophene-2-carboxamide] | nontoxic | nontoxic | without obvious toxic effects | inhibited the growth; also recorded: reduces the growth of xenograft tumors | hit | – | – | – | – | – | – | – | – | –
2 | O=C(Nc1cccs1)c1cccnc1 [Compound 9, N-(Thiophen-2-yl)nicotinamide] | – | – | – | – | – | did not reduce the levels of NMN to the same extent as FK866 | 2.9 fold | 15.4 fold | the same in all clones | five out of eight clones | did not observe a substantial difference | no appreciable decrease | ~3.8 h | metabolized over time
